These results are taken from the NIST ThermoML archive (doi:10.1021/acs.jced.8b00854).

Several values for one entry are separate records, joined by “and”; a condition that tells them apart may be missing. Equal entries are not always repeated. ± gives the expanded uncertainty stated by the source.

Data set [1] is described as follows: refractive index (Na D-line) (dimensionless). Particulars: 100 kPa, Liquid, Standard Abbe refractometry.
The conditions of data set [2]: 100 kPa, Liquid, Vibrating tube method.
A short description of data set [3]: xn = mol fraction of the nth substance listed. Conditions: 100 kPa, Liquid, Vibrating tube method, x2 = 0.
Data set [4] can be described thus: refractive index (Na D-line) (dimensionless); xn = mol fraction of the nth substance listed. Conditions: 100 kPa, Liquid, Standard Abbe refractometry, x2 = 0.

Turning to `O` [water], the refractive index in data set [1] (293.15 K) was 1.3335 ± 0.0016; in data set [1] (303.15 K), 1.3315 ± 0.0016; in data set [1] (313.15 K) it was 1.3305 ± 0.0016; in data set [1] (323.15 K), 1.329 ± 0.0016; in data set [1] (333.15 K), 1.3275 ± 0.0016; in data set [1] (343.15 K) it was 1.326 ± 0.0016. In addition, the mass density in data set [2] (323.15 K) was 988.04 ± 2 kg/m3; in data set [2] (333.15 K), 981.56 ± 2 kg/m3 and 988.04 ± 2 kg/m3; in data set [2] (343.15 K) it was 972.75 ± 2 kg/m3.

Take `O` [water] + CCCCCCCCOS(=O)(=O)[O-].CCCCn1cc[n+](C)c1: the values for the mass density in data set [3] (323.15 K), in data set [3] (333.15 K) and in data set [3] (343.15 K) were 988.04 ± 2 kg/m3, 981.56 ± 2 kg/m3 and 972.75 ± 2 kg/m3, respectively. For the same compound, the refractive index worked out at 1.3335 ± 0.0016 in data set [4] (293.15 K); 1.3315 ± 0.0016 in data set [4] (303.15 K); 1.3305 ± 0.0016 in data set [4] (313.15 K); 1.329 ± 0.0016 in data set [4] (323.15 K); 1.3275 ± 0.0016 in data set [4] (333.15 K); 1.326 ± 0.0016 in data set [4] (343.15 K).

In the case of `O` [water] + CCCCCCCC[n+]1ccn(C)c1.F[B-](F)(F)F, the mass density in data set [3] (323.15 K) was 988.04 ± 2 kg/m3; in data set [3] (333.15 K), 988.04 ± 2 kg/m3; in data set [3] (343.15 K) it was 972.75 ± 2 kg/m3. The refractive index is recorded as 1.3335 ± 0.0016 in data set [4] (293.15 K); 1.3315 ± 0.0016 in data set [4] (303.15 K); 1.3305 ± 0.0016 in data set [4] (313.15 K); 1.329 ± 0.0016 in data set [4] (323.15 K); 1.3275 ± 0.0016 in data set [4] (333.15 K); 1.326 ± 0.0016 in data set [4] (343.15 K).

As to `O` [water] + CCCCCCn1cc[n+](C)c1.F[B-](F)(F)F, the mass density stood at 988.04 ± 2 kg/m3 in data set [3] (323.15 K), 981.56 ± 2 kg/m3 in data set [3] (333.15 K) and 972.75 ± 2 kg/m3 in data set [3] (343.15 K). Moreover, the refractive index came to 1.3335 ± 0.0016 in data set [4] (293.15 K); 1.3315 ± 0.0016 in data set [4] (303.15 K); 1.3305 ± 0.0016 in data set [4] (313.15 K); 1.329 ± 0.0016 in data set [4] (323.15 K); 1.3275 ± 0.0016 in data set [4] (333.15 K); 1.326 ± 0.0016 in data set [4] (343.15 K).

As for `O` [water] + CCCCn1cc[n+](C)c1.F[B-](F)(F)F, the mass density in data set [3] (323.15 K) stood at 988.04 ± 2 kg/m3; in data set [3] (333.15 K), 981.56 ± 2 kg/m3; in data set [3] (343.15 K), 972.75 ± 2 kg/m3. Besides, the refractive index in data set [4] (293.15 K) was determined as 1.3335 ± 0.0016; in data set [4] (303.15 K), 1.3315 ± 0.0016; in data set [4] (313.15 K) it was 1.3305 ± 0.0016; in data set [4] (323.15 K), 1.329 ± 0.0016; in data set [4] (333.15 K), 1.3275 ± 0.0016; in data set [4] (343.15 K), 1.326 ± 0.0016.

As to `O` [water] + CCCCn1cc[n+](C)c1.O=S(=O)([O-])C(F)(F)F, the values for the mass density in data set [3] (323.15 K), in data set [3] (333.15 K) and in data set [3] (343.15 K) were 988.04 ± 2 kg/m3, 981.56 ± 2 kg/m3 and 972.75 ± 2 kg/m3, respectively. The refractive index is reported as 1.3335 ± 0.0016 in data set [4] (293.15 K); 1.3315 ± 0.0016 in data set [4] (303.15 K); 1.3305 ± 0.0016 in data set [4] (313.15 K); 1.329 ± 0.0016 in data set [4] (323.15 K); 1.3275 ± 0.0016 in data set [4] (333.15 K); 1.326 ± 0.0016 in data set [4] (343.15 K).

Regarding `O` [water] + CCn1cc[n+](C)c1.F[B-](F)(F)F, the mass density stood at 988.04 ± 2 kg/m3 in data set [3] (323.15 K), 981.56 ± 2 kg/m3 in data set [3] (333.15 K) and 972.75 ± 2 kg/m3 in data set [3] (343.15 K). In addition, the refractive index in data set [4] (293.15 K) came to 1.3335 ± 0.0016; in data set [4] (303.15 K), 1.3315 ± 0.0016; in data set [4] (313.15 K), 1.3305 ± 0.0016; in data set [4] (323.15 K), 1.329 ± 0.0016; in data set [4] (333.15 K) it was 1.3275 ± 0.0016; in data set [4] (343.15 K), 1.326 ± 0.0016.

For `O` [water] + CCn1cc[n+](C)c1.O=S(=O)([O-])C(F)(F)F, the mass density in data set [3] (323.15 K) came to 988.04 ± 2 kg/m3; in data set [3] (333.15 K), 981.56 ± 2 kg/m3; in data set [3] (343.15 K), 972.75 ± 2 kg/m3. The refractive index in data set [4] (293.15 K) is given as 1.3335 ± 0.0016; in data set [4] (303.15 K), 1.3315 ± 0.0016; in data set [4] (313.15 K), 1.3305 ± 0.0016; in data set [4] (323.15 K), 1.329 ± 0.0016; in data set [4] (333.15 K) it was 1.3275 ± 0.0016; in data set [4] (343.15 K), 1.326 ± 0.0016.
